# According to patent US20250114338A1, “TETRAHYDRO-PYRIDO[3,4-b]INDOLE ESTROGEN RECEPTOR MODULATORS AND USES THEREOF” (Genentech, Inc., priority 2014, published 2025):
# Tested on: ER-alpha MCF7
# Assay: ER-alpha MCF7 HCS EC50; stated as measured by in vitro cell proliferation assays of Examples 902 and 903
# Format: cell-based
# Details: Homo sapiens, MCF7, MCF7 cells; Table 2
# Summary of the method: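 MCF7 cells seeded 1000-2000 cells/well for 16 h, then treated with nine-point 1:2 DMSO dilution series in quadruplicate at 37 °C, 5% CO2 for 4 days. Viable cells quantified by CellTiter-Glo ATP luminescence; EC50 calculated. Controls: fulvestrant at final 100 nM, DMSO 0.2% v/v.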
row,EC50 [nM],SMILES
1,25,"C[C@@H]1Cc2c([nH]c3ccccc23)[C@H](c2ccc(OCCN3CC(CF)C3)cc2F)N1C(=O)C(C)(C)F [Example 229, 2-fluoro-1-[(1S,3R)-1-[2-fluoro-4-[2-[3-(fluoromethyl)azetidin-1-yl]ethoxy]phenyl]-3-methyl-1,3,4,9-tetrahydropyrido[3,4-b]indol-2-yl]-2-methyl-propan-1-one]"
2,0.068,"C[C@@H]1Cc2c([nH]c3ccccc23)[C@@H](c2ccc(OCCN3CC(CF)C3)cc2F)N1C(=O)C(C)(C)F [Example 230, 2-fluoro-1-[(1R,3R)-1-[2-fluoro-4-[2-[3-(fluoromethyl)azetidin-1-yl]ethoxy]phenyl]-3-methyl-1,3,4,9-tetrahydropyrido[3,4-b]indol-2-yl]-2-methyl-propan-1-one]"
3,24,"C[C@@H]1Cc2c([nH]c3ccccc23)[C@H](c2ccc(OCCN3CC(CF)C3)cc2F)N1S(C)(=O)=O [Example 231, (1S,3R)-1-[2-fluoro-4-[2-[3-(fluoromethyl)azetidin-1-yl]ethoxy]phenyl]-3-methyl-2-methylsulfonyl-1,3,4,9-tetrahydropyrido[3,4-b]indole]"
4,0.192,"C[C@@H]1Cc2c([nH]c3ccccc23)[C@@H](c2ccc(OCCN3CC(CF)C3)cc2F)N1S(C)(=O)=O [Example 232, (1R,3R)-1-[2-fluoro-4-[2-[3-(fluoromethyl)azetidin-1-yl]ethoxy]phenyl]-3-methyl-2-methylsulfonyl-1,3,4,9-tetrahydropyrido[3,4-b]indole]"
5,0.133,"C[C@@H]1Cc2c([nH]c3ccccc23)[C@@H](c2c(F)cc(OC3CN(CCCF)C3)cc2F)N1C[C@](C)(F)CO [Example 233, 3-((1R,3R)-1-(2,6-difluoro-4-((1-(3-fluoropropyl)azetidin-3-yl)oxy)phenyl)-3-methyl-1,3,4,9-tetrahydro-2H-pyrido[3,4-b]indol-2-yl)-2-fluoro-2-methylpropan-1-ol]"
6,0.18,"C[C@@H]1Cc2c([nH]c3ccccc23)[C@@H](c2c(F)cc(OC3CN(CCCF)C3)cc2F)N1C[C@@](C)(F)CO [Example 234, 3-((1R,3R)-1-(2,6-difluoro-4-((1-(3-fluoropropyl)azetidin-3-yl)oxy)phenyl)-3-methyl-1,3,4,9-tetrahydro-2H-pyrido[3,4-b]indol-2-yl)-2-fluoro-2-methylpropan-1-ol]"
7,24,"C[C@@H]1Cc2c([nH]c3ccccc23)[C@H](c2ccc(OCCN3CC(CF)C3)cc2)N1C(=O)C(C)(C)F [Example 235, 2-fluoro-1-[(1S,3R)-1-[4-[2-[3-(fluoromethyl)azetidin-1-yl]ethoxy]phenyl]-3-methyl-1,3,4,9-tetrahydropyrido[3,4-b]indol-2-yl]-2-methyl-propan-1-one]"
8,0.182,"CC(C)(F)CN1CCc2c([nH]c3ccccc23)[C@H]1c1c(F)cc(OCCN2CC(CF)C2)cc1F [Example 236, (IR)-1-[2,6-difluoro-4-[2-[3-(fluoromethyl)azetidin-1-yl]ethoxy]phenyl]-2-(2-fluoro-2-methyl-propyl)-1,3,4,9-tetrahydropyrido[3,4-b]indole]"
9,46,"CC(C)(F)CN1CCc2c([nH]c3ccccc23)[C@@H]1c1c(F)cc(OCCN2CC(CF)C2)cc1F [Example 237, (1S)-1-[2,6-difluoro-4-[2-[3-(fluoromethyl)azetidin-1-yl]ethoxy]phenyl]-2-(2-fluoro-2-methyl-propyl)-1,3,4,9-tetrahydropyrido[3,4-b]indole]"
10,0.244,"C[C@@H]1Cc2c([nH]c3ccccc23)[C@@H](c2c(F)cc(OC3CN(CCCF)C3)cc2F)N1C(=O)C1(F)CC1 [Example 238, [(1R,3R)-1-[2,6-difluoro-4-[1-(3-fluoropropyl)azetidin-3-yl]oxy-phenyl]-3-methyl-1,3,4,9-tetrahydropyrido[3,4-b]indol-2-yl]-(1-fluorocyclopropyl)methanone]"
11,1.56,"C[C@@H]1Cc2c([nH]c3ccc(Cl)cc23)[C@@H](c2c(F)cc(OC3CN(CCCF)C3)cc2F)N1CC(C)(C)F [Example 239, (1R,3R)-6-chloro-1-(2,6-difluoro-4-((1-(3-fluoropropyl)azetidin-3-yl)oxy)phenyl)-2-(2-fluoro-2-methylpropyl)-3-methyl-2,3,4,9-tetrahydro-1H-pyrido[3,4-b]indole]"
12,0.261,"C[C@@H]1Cc2c([nH]c3cc(F)ccc23)[C@@H](c2c(F)cc(OCCN3CC(CF)C3)cc2F)N1CC(C)(C)F [Example 240, (1R,3R)-1-(2,6-difluoro-4-(2-(3-(fluoromethyl)azetidin-1-yl)ethoxy)phenyl)-7-fluoro-2-(2-fluoro-2-methylpropyl)-3-methyl-2,3,4,9-tetrahydro-1H-pyrido[3,4-b]indole]"
13,0.381,"C[C@@H]1Cc2c([nH]c3ccc(F)cc23)[C@@H](c2c(F)cc(OCCN3CC(CF)C3)cc2F)N1CC(C)(C)F [Example 241, (1R,3R)-1-(2,6-difluoro-4-(2-(3-(fluoromethyl)azetidin-1-yl)ethoxy)phenyl)-6-fluoro-2-(2-fluoro-2-methylpropyl)-3-methyl-2,3,4,9-tetrahydro-1H-pyrido[3,4-b]indole]"
14,5.42,"C[C@@H]1Cc2c([nH]c3ccc(F)cc23)[C@@H](c2c(F)cc(OC3CN(CCCF)C3)cc2F)N1CC(C)(C)F [Example 242, (1R,3R)-1-(2,6-difluoro-4-((1-(3-fluoropropyl)azetidin-3-yl)oxy)phenyl)-6-fluoro-2-(2-fluoro-2-methylpropyl)-3-methyl-2,3,4,9-tetrahydro-1H-pyrido[3,4-b]indole]"
15,2,"C[C@@H]1Cc2c([nH]c3ccccc23)[C@@H](c2c(F)cc(OCCN3CC(CF)C3)cc2F)N1CC1(CO)CC1 [Example 243, (1-(((1R,3R)-1-(2,6-difluoro-4-(2-(3-(fluoromethyl)azetidin-1-yl)ethoxy)phenyl)-3-methyl-1,3,4,9-tetrahydro-2H-pyrido[3,4-b]indol-2-yl)methyl)cyclopropyl) methanol]"
16,63,"C[C@H]1Cc2c([nH]c3ccc(Cl)cc23)[C@H](c2c(F)cc(OC3CN(CCCF)C3)cc2F)N1CC(C)(C)F [Example 244, (1S,3S)-6-chloro-1-(2,6-difluoro-4-((1-(3-fluoropropyl)azetidin-3-yl)oxy)phenyl)-2-(2-fluoro-2-methylpropyl)-3-methyl-2,3,4,9-tetrahydro-1H-pyrido[3,4-b]indole]"
17,35,"C[C@H]1Cc2c([nH]c3ccc(F)cc23)[C@H](c2c(F)cc(OCCN3CC(CF)C3)cc2F)N1CC(C)(C)F [Example 245, (1S,3S)-1-(2,6-difluoro-4-(2-(3-(fluoromethyl)azetidin-1-yl)ethoxy)phenyl)-6-fluoro-2-(2-fluoro-2-methylpropyl)-3-methyl-2,3,4,9-tetrahydro-1H-pyrido[3,4-b]indole]"
18,0.358,"C[C@@H]1Cc2c([nH]c3ccccc23)[C@@H](c2c(F)cc(OC3CN(CCCF)C3)cc2F)N1CC1(C)COC1 [Example 246, (1R,3R)-1-[2,6-difluoro-4-[1-(3-fluoropropyl)azetidin-3-yl]oxy-phenyl]-3-methyl-2-[(3-methyloxetan-3-yl)methyl]-1,3,4,9-tetrahydropyrido[3,4-b]indole]"
19,4.34,"C[C@@H]1Cc2c([nH]c3cccc(F)c23)[C@@H](c2c(F)cc(OCCN3CC(CF)C3)cc2F)N1CC(C)(C)F [Example 247, (1R,3R)-1-(2,6-difluoro-4-(2-(3-(fluoromethyl)azetidin-1-yl)ethoxy)phenyl)-5-fluoro-2-(2-fluoro-2-methylpropyl)-3-methyl-2,3,4,9-tetrahydro-1H-pyrido[3,4-b]indole]"
20,0.518,"C[C@@H]1Cc2c([nH]c3cc(F)ccc23)[C@@H](c2c(F)cc(OC3CN(CCCF)C3)cc2F)N1CC(C)(C)F [Example 248, (1R,3R)-1-(2,6-difluoro-4-((1-(3-fluoropropyl)azetidin-3-yl)oxy)phenyl)-7-fluoro-2-(2-fluoro-2-methylpropyl)-3-methyl-2,3,4,9-tetrahydro-1H-pyrido[3,4-b]indole]"
21,0.511,"C[C@@H]1Cc2c([nH]c3cccc(F)c23)[C@@H](c2c(F)cc(OC3CN(CCCF)C3)cc2F)N1CC(C)(C)F [Example 249, (1R,3R)-1-(2,6-difluoro-4-((1-(3-fluoropropyl)azetidin-3-yl)oxy)phenyl)-5-fluoro-2-(2-fluoro-2-methylpropyl)-3-methyl-2,3,4,9-tetrahydro-1H-pyrido[3,4-b]indole]"
22,0.275,"C[C@@H]1Cc2c([nH]c3ccccc23)[C@@H](c2ccc(OCCN3CC[C@@H](CF)C3)cc2)N1CC(C)(C)F [Example 250, (1R,3R)-2-(2-fluoro-2-methyl-propyl)-1-[4-[2-[(3R)-3-(fluoromethyl)pyrrolidin-1-yl]ethoxy]phenyl]-3-methyl-1,3,4,9-tetrahydropyrido[3,4-b]indole]"
23,21,"C[C@H]1Cc2c([nH]c3cccc(F)c23)[C@H](c2c(F)cc(OCCN3CC(CF)C3)cc2F)N1CC(C)(C)F [Example 251, (1S,3S)-1-(2,6-difluoro-4-(2-(3-(fluoromethyl)azetidin-1-yl)ethoxy)phenyl)-5-fluoro-2-(2-fluoro-2-methylpropyl)-3-methyl-2,3,4,9-tetrahydro-1H-pyrido[3,4-b]indole]"
24,50,"C[C@H]1Cc2c([nH]c3cc(F)ccc23)[C@H](c2c(F)cc(OC3CN(CCCF)C3)cc2F)N1CC(C)(C)F [Example 252, (1S,3S)-1-(2,6-difluoro-4-((1-(3-fluoropropyl)azetidin-3-yl)oxy)phenyl)-7-fluoro-2-(2-fluoro-2-methylpropyl)-3-methyl-2,3,4,9-tetrahydro-1H-pyrido[3,4-b]indole]"
25,35,"C[C@H]1Cc2c([nH]c3cccc(F)c23)[C@H](c2c(F)cc(OC3CN(CCCF)C3)cc2F)N1CC(C)(C)F [Example 253, (1S,3S)-1-(2,6-difluoro-4-((1-(3-fluoropropyl)azetidin-3-yl)oxy)phenyl)-5-fluoro-2-(2-fluoro-2-methylpropyl)-3-methyl-2,3,4,9-tetrahydro-1H-pyrido[3,4-b]indole]"
